# Test results as given in US11718604B2, “4-amino-6-(1,3-benzodioxole)picolinates and their use as herbicides” (Dow AgroSciences LLC, priority 2018, dated 2023).
# What was measured:
# Assay type in all cases: in vivo
# [1] = system: ABUTH: velvetleaf (Abutilon theophrasti); test: Post-emergent herbicidal test, velvetleaf; conditions: post-emergence, 336 h, 14 days after application, read-out: Visual Growth Reduction (%) 14 Days After Application ABUTH
# Description: (§1) Post-Emergent Test: Seeds or nutlets of the desired test plant species were planted in Sun Gro Metro-Mix® 360 planting mixture, which typically has a pH of 6.0 to 6.8 and an organic matter content of about 30 percent, in plastic pots with a surface area of 64 square centimeters (cm^2). When required to ensure good germination and healthy plants, a fungicide treatment and/or other chemical or physical treatment was applied. The plants were grown for 7-21 d in a greenhouse with an approximate 15 h photoperiod which was maintained at about 23-29° C. during the day and 22-28° C. during the night. Nutrients and water were added on a regular basis and supplemental lighting was provided with overhead metal halide 1000-Watt lamps as necessary. The plants were employed for testing when they reached the first or second true leaf stage.
# (§2) A weighed amount, determined by the highest rate to be tested, of each test compound was placed in a 25 mL glass vial and was dissolved in 4 mL of a 97:3 v/v mixture of acetone and DMSO to obtain concentrated stock solutions. […] The concentrated stock solutions obtained were diluted with 20 mL of an aqueous mixture containing acetone, water, isopropyl alcohol, DMSO, Atplus 411F crop oil concentrate, and Triton® X-155 surfactant in a 48.5:39:10:1.5:1.0:0.02 v/v ratio to obtain spray solutions containing the highest application rates. Additional application rates were obtained by serial dilution of 12 mL of the high rate solution into a solution containing 2 mL of a 97:3 v/v mixture of acetone and DMSO and 10 mL of an aqueous mixture containing acetone, water, isopropyl alcohol, DMSO, Atplus 411F crop oil concentrate, and Triton X-155 surfactant in a 48.5:39:10:1.5:1.0:0.02 v/v ratio to obtain ½×, ¼×, ⅛× and 1/16× rates of the high rate. Compound requirements are based upon a 12 mL application volume at a rate of 187 liters per hectare (L/ha). Formulated compounds were applied to the plant material with an overhead Mandel track sprayer equipped with 8002E nozzles calibrated to deliver 187 L/ha over an application area of 0.503 square meters at a spray height of 18 inches (43 cm) above the average plant canopy height. Control plants were sprayed in the same manner with the solvent blank.
# (§3) The treated plants and control plants were placed in a greenhouse as described above and watered by subirrigation to prevent wash-off of the test compounds. After 14 d, the condition of the test plants as compared with that of the untreated plants was determined visually and scored on a scale of 0 to 100 percent where 0 corresponds to no injury and 100 corresponds to complete kill.
# [2] = system: BRSNN: oilseed rape, canola (Brassica napus); test: Post-emergent herbicidal test, oilseed rape; conditions: post-emergence, 336 h, 14 days after application, read-out: Visual Growth Reduction (%) 14 Days After Application BRSNN
# Description: as §1, §2, §3
# [3] = system: CIRAR: Canada thistle (Cirsium arvense); test: Post-emergent herbicidal test, Canada thistle; conditions: post-emergence, 336 h, 14 days after application, read-out: Visual Growth Reduction (%) 14 Days After Application CIRAR
# Description: as §1, §2, §3
# [4] = system: EPHHL: wild poinsettia (Euphorbia heterophylla); test: Post-emergent herbicidal test, wild poinsettia; conditions: post-emergence, 336 h, 14 days after application, read-out: Visual Growth Reduction (%) 14 Days After Application EPHHL
# Description: as §1, §2, §3
# [5] = system: IPOHE: ivyleaf morningglory (Ipomoea hederacea); test: Post-emergent herbicidal test, ivyleaf morningglory; conditions: post-emergence, 336 h, 14 days after application, read-out: Visual Growth Reduction (%) 14 Days After Application IPOHE
# Description: as §1, §2, §3
# [6] = system: VIOTR: wild violet (Viola tricolor); test: Post-emergent herbicidal test, wild violet; conditions: post-emergence, 336 h, 14 days after application, read-out: Visual Growth Reduction (%) 14 Days After Application VIOTR
# Description: as §1, §2, §3
# [7] = system: CYPES: yellow nutsedge (Cyperus esculentus); test: Post-emergent herbicidal test, yellow nutsedge; conditions: post-emergence, 336 h, 14 days after application, read-out: Visual Growth Reduction (%) 14 Days After Application CYPES
# Description: as §1, §2, §3
# [8] = system: DIGSA: large crabgrass (Digitaria sanguinalis); test: Post-emergent herbicidal test, large crabgrass; conditions: post-emergence, 336 h, 14 days after application, read-out: Visual Growth Reduction (%) 14 Days After Application DIGSA
# Description: as §1, §2, §3
# [9] = system: ECHCG: barnyardgrass (Echinochloa crus-galli); test: Post-emergent herbicidal test, barnyardgrass; conditions: post-emergence, 336 h, 14 days after application, read-out: Visual Growth Reduction (%) 14 Days After Application ECHCG
# Description: as §1, §2, §3
# [10] = system: SETFA: giant foxtail (Setaria faberi); test: Post-emergent herbicidal test, giant foxtail; conditions: post-emergence, 336 h, 14 days after application, read-out: Visual Growth Reduction (%) 14 Days After Application SETFA
# Description: as §1, §2, §3
# [11] = system: SORVU: shattercane (Sorghum bicolor); test: Post-emergent herbicidal test, shattercane; conditions: post-emergence, 336 h, 14 days after application, read-out: Visual Growth Reduction (%) 14 Days After Application SORVU
# Description: as §1, §2, §3
compound,measurement,setting,value
COC(=O)c1nc(-c2ccc(Cl)c3c2OC(F)(F)O3)c(F)c(N)c1Cl [Compound 6],pest or weed control at 17.5 g/ha,[1]; 17.5 g ai/ha,75%
same,pest or weed control at 35 g/ha,[1]; 35 g ai/ha,77%
same,pest or weed control at 70 g/ha,[1]; 70 g ai/ha,80%
same,pest or weed control at 140 g/ha,[1]; 140 g ai/ha,83%
same,pest or weed control at 17.5 g/ha,[2]; 17.5 g ai/ha,80%
same,pest or weed control at 35 g/ha,[2]; 35 g ai/ha,82%
same,pest or weed control at 70 g/ha,[2]; 70 g ai/ha,92%
same,pest or weed control at 140 g/ha,[2]; 140 g ai/ha,97%
same,pest or weed control at 17.5 g/ha,[3]; 17.5 g ai/ha,70%
same,pest or weed control at 35 g/ha,[3]; 35 g ai/ha,77%
same,pest or weed control at 70 g/ha,[3]; 70 g ai/ha,85%
same,pest or weed control at 140 g/ha,[3]; 140 g ai/ha,88%
same,pest or weed control at 17.5 g/ha,[4]; 17.5 g ai/ha,2%
same,pest or weed control at 35 g/ha,[4]; 35 g ai/ha,0%
same,pest or weed control at 70 g/ha,[4]; 70 g ai/ha,2%
same,pest or weed control at 140 g/ha,[4]; 140 g ai/ha,7%
same,pest or weed control at 17.5 g/ha,[5]; 17.5 g ai/ha,0%
same,pest or weed control at 35 g/ha,[5]; 35 g ai/ha,3%
same,pest or weed control at 70 g/ha,[5]; 70 g ai/ha,3%
same,pest or weed control at 140 g/ha,[5]; 140 g ai/ha,10%
same,pest or weed control at 17.5 g/ha,[6]; 17.5 g ai/ha,3%
same,pest or weed control at 35 g/ha,[6]; 35 g ai/ha,12%
same,pest or weed control at 70 g/ha,[6]; 70 g ai/ha,30%
same,pest or weed control at 140 g/ha,[6]; 140 g ai/ha,53%
same,pest or weed control at 17.5 g/ha,[7]; 17.5 g ai/ha,30%
same,pest or weed control at 35 g/ha,[7]; 35 g ai/ha,25%
same,pest or weed control at 70 g/ha,[7]; 70 g ai/ha,25%
same,pest or weed control at 140 g/ha,[7]; 140 g ai/ha,60%
same,pest or weed control at 17.5 g/ha,[8]; 17.5 g ai/ha,0%
same,pest or weed control at 35 g/ha,[8]; 35 g ai/ha,0%
same,pest or weed control at 70 g/ha,[8]; 70 g ai/ha,0%
same,pest or weed control at 140 g/ha,[8]; 140 g ai/ha,0%
same,pest or weed control at 17.5 g/ha,[9]; 17.5 g ai/ha,0%
same,pest or weed control at 35 g/ha,[9]; 35 g ai/ha,0%
same,pest or weed control at 70 g/ha,[9]; 70 g ai/ha,3%
same,pest or weed control at 140 g/ha,[9]; 140 g ai/ha,3%
same,pest or weed control at 17.5 g/ha,[10]; 17.5 g ai/ha,0%
same,pest or weed control at 35 g/ha,[10]; 35 g ai/ha,0%
same,pest or weed control at 70 g/ha,[10]; 70 g ai/ha,0%
same,pest or weed control at 140 g/ha,[10]; 140 g ai/ha,3%
same,pest or weed control at 17.5 g/ha,[11]; 17.5 g ai/ha,0%
same,pest or weed control at 35 g/ha,[11]; 35 g ai/ha,2%
same,pest or weed control at 70 g/ha,[11]; 70 g ai/ha,10%
same,pest or weed control at 140 g/ha,[11]; 140 g ai/ha,23%
